In patent US12371428B2 (Exelixis, Inc., priority 2019, dated 2025):

Experiments:
[1] = target: Met (phospho-Met, HGF-stimulated PC-3 prostate cancer cells) (Homo sapiens (Human), UniProt P08581); experiment: Met autophosphorylation ELISA in PC-3 cells (Example F); assay type: cell-based; conditions: cellular activity; Met autophosphorylation ELISA in PC-3 cells; read-out: c-Met IC50
How it was run: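 Serum-starved (3 h) PC-3 cells were treated 1 h with compounds (8-point curve, 0.3% DMSO), then stimulated with 100 ng/mL human HGF for 10 min. Lysate phospho-Met (panTyr) was measured by sandwich ELISA, normalised to DMSO and reference-inhibitor controls. IC50 came from 4-parameter logistic fit.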

[2] = target: Human MER (residues 528-999) (Homo sapiens (Human), UniProt Q12866); experiment: Human Mer kinase assay, HTRF KinEase (Example C-2); assay type: biochemical; conditions: protocol of Example C-2 (other compounds)
How it was run: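 HTRF KinEase TK assay with MER 528-999 (1 ng/well) in enzymatic buffer plus 5 mM MgCl2 and 1 mM DTT, biotinylated peptide substrate and ATP at Km (40 μM), 3% DMSO final, 60 min at room temperature. Stopped with EDTA detection mix (SA-XL665, TK antibody-Eu3+), read at 665/620 nm after 60 min; IC50 from 10-point 4-parameter fit, normalized to DMSO and 1 μM reference.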

[3] = target: Human MET (residues 956-1390) (Homo sapiens (Human), UniProt P08581); experiment: Human Met kinase assay, HTRF KinEase (Example D-2); assay type: biochemical; conditions: protocol of Example D-2 (other compounds); read-out: c-Met IC50
How it was run: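 HTRF KinEase assay on MET residues 956-1390 (0.1 ng/well) in buffer with 5 mM MgCl2, 1 mM DTT and 1 mM MnCl2, with biotinylated peptide substrate, ATP at Km, 10 compound concentrations and 3% DMSO final, run 40 min at room temperature. The […] signal was normalized to DMSO and to 1 μM reference compound, and IC50 came from a 4-parameter logistic fit.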

[4] = target: Human KDR (residues 790-1356) (Homo sapiens (Human), UniProt P35968); experiment: Human KDR kinase assay, HTRF KinEase (Example B-2); assay type: biochemical; conditions: protocol of Example B-2 (other compounds)
How it was run: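 Ten compound concentrations (3% DMSO final) were pre-plated, then KDR (790-1356) with biotinylated peptide in Mg/Mn/DTT buffer was added; ATP at Km (4.0 μM) started a 40 min room-temperature reaction. Detection used Eu-TK antibody and SA-XL665 in EDTA buffer; activity normalized to DMSO and reference inhibitor, IC50 by logistic fit.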

Sequence of Human KDR (residues 790-1356) (P35968 790-1356): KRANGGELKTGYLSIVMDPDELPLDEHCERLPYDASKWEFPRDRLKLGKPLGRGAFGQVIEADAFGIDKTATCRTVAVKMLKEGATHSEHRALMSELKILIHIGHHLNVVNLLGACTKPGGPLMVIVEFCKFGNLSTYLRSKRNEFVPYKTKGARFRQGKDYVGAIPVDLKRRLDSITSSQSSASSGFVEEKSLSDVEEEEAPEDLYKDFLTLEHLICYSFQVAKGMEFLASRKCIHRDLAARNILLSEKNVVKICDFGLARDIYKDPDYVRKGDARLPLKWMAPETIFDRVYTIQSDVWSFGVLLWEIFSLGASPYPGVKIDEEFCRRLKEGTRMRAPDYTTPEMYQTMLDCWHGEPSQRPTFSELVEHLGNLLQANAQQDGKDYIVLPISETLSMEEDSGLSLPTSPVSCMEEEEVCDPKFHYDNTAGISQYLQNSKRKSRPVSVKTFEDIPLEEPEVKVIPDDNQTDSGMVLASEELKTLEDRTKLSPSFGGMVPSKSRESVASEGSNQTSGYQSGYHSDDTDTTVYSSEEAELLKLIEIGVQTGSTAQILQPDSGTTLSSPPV
Sequence of Human MER (residues 528-999) (Q12866 528-999): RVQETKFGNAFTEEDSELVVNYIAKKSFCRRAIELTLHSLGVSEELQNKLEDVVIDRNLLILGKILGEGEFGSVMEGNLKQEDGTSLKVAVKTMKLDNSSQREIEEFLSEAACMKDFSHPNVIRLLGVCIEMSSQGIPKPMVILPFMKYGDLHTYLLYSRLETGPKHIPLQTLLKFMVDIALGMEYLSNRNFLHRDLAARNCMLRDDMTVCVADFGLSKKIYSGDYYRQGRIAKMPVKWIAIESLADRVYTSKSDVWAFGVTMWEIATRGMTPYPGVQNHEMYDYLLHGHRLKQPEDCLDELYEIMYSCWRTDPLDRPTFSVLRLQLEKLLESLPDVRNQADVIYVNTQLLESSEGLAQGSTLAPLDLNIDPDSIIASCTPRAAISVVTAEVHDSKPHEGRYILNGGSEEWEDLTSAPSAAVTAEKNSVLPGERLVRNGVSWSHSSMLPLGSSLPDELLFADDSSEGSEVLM
Sequence of Met (phospho-Met, HGF-stimulated PC-3 prostate cancer cells) (P08581 25-1390): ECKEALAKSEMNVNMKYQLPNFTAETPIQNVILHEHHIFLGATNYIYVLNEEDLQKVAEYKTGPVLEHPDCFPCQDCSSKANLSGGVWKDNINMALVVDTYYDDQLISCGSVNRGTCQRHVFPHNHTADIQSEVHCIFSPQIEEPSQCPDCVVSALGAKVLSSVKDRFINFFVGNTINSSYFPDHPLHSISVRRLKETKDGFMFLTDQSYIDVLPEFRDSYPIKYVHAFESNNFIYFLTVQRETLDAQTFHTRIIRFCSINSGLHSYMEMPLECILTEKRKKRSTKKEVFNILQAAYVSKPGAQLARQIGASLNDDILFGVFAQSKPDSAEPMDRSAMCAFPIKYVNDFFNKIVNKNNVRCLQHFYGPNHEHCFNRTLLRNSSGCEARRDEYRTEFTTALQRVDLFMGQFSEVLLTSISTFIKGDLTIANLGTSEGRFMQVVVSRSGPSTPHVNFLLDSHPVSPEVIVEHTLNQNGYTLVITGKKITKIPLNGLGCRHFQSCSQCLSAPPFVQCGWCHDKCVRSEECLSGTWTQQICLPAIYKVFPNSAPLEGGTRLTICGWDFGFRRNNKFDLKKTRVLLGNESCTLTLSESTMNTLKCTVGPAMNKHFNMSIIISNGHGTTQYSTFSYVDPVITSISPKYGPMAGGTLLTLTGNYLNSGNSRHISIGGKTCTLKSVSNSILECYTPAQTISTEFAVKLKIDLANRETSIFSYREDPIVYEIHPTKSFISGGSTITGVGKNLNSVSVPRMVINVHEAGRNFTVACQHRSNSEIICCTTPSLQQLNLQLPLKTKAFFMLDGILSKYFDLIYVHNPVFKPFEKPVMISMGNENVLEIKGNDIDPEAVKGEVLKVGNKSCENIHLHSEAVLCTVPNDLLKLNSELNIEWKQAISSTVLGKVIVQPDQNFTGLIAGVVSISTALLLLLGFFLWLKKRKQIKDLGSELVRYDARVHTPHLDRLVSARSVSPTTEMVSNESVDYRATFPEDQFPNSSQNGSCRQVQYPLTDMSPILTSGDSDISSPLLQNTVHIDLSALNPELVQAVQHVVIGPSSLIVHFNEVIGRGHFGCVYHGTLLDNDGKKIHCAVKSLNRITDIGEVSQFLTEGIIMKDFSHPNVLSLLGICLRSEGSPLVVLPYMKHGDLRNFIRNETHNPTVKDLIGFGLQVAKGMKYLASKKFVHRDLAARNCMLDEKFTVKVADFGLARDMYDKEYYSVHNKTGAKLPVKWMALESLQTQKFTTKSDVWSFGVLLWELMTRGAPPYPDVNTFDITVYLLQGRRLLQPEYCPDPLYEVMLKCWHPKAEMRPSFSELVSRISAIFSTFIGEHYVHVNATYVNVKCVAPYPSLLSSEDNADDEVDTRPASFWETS
Sequence of Human MET (residues 956-1390) (P08581 956-1390): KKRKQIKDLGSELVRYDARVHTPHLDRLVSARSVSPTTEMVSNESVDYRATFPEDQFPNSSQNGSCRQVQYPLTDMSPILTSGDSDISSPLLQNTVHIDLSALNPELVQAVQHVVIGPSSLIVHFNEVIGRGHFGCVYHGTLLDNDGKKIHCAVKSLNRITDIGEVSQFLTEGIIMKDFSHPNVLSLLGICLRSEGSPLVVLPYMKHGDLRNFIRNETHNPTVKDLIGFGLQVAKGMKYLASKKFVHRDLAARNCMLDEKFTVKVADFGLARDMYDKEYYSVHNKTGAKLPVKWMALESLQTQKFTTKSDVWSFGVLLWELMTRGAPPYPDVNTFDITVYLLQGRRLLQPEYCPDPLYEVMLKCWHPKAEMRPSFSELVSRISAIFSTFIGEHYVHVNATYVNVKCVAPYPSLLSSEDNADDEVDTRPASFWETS

IC50 [1] [nM] | IC50 [2] [nM] | IC50 [3] [nM] | IC50 [4] [nM] | SMILES
< 100 | < 100 | 100 to 300 | > 300 | COc1ccc2nccc(Oc3ccc(NC(=O)c4cn(C5CC5)c(C)c(-c5ccc(F)cc5C)c4=O)cc3F)c2n1 [Compound 441, 1-cyclopropyl-N-[3-fluoro-4-[(6-methoxy-1,5-naphthyridin-4-yl)oxy]phenyl]-5-(4-fluoro-2-methylphenyl)-6-methyl-4-oxopyridine-3-carboxamide]
< 100 | < 100 | < 100 | 100 to 300 | CCn1cc(-c2ccc(F)cc2)c(=O)c(C(=O)Nc2ccc(Oc3ccnc4cc(OC)c(OC)nc34)c(F)c2)c1C [Compound 82, N-[4-[(6,7-Dimethoxy-1,5-naphthyridin-4-yl)oxy]-3-fluorophenyl]-1-ethyl-5-(4-fluorophenyl)-2-methyl-4-oxopyridine-3-carboxamide]
< 100 | < 100 | < 100 | < 100 | COc1cc2nccc(Oc3ccc(NC(=O)c4cn(C)c(Cl)c(-c5ccc(F)cc5)c4=O)cc3F)c2nc1OC [Compound 412, 6-chloro-N-[4-[(6,7-dimethoxy-1,5-naphthyridin-4-yl)oxy]-3-fluorophenyl]-5-(4-fluorophenyl)-1-methyl-4-oxopyridine-3-carboxamide]
< 100 | < 100 | < 100 | > 300 | Cc1cc(F)ccc1-c1c(C)nnc(C(=O)Nc2ccc(Oc3ccnc4cc(C)c(F)nc34)c(F)c2)c1O [Compound 430, N-[3-fluoro-4-[(6-fluoro-7-methyl-1,5-naphthyridin-4-yl)oxy]phenyl]-5-(4-fluoro-2-methylphenyl)-4-hydroxy-6-methylpyridazine-3-carboxamide]
< 100 | < 100 | < 100 | < 100 | COc1cnc2c(Oc3ccc(NC(=O)c4ccc(C)n(-c5ccc(F)cc5)c4=O)cc3F)ccnc2c1 [Compound 83, N-[3-Fluoro-4-[(7-methoxy-1,5-naphthyridin-4-yl)oxy]phenyl]-1-(4-fluorophenyl)-6-methyl-2-oxopyridine-3-carboxamide]
100 to 300 | < 100 | < 100 | < 100 | COc1cc2nccc(Oc3ccc(NC(=O)c4c(C)nc(O)c(-c5ccc(F)cc5)c4O)cc3F)c2nc1OC [Compound 443, N-[4-[(6,7-dimethoxy-1,5-naphthyridin-4-yl)oxy]-3-fluorophenyl]-5-(4-fluorophenyl)-4,6-dihydroxy-2-methylpyridine-3-carboxamide]
< 100 | < 100 | 100 to 300 | > 300 | CCc1cc2nccc(Oc3ccc(NC(=O)c4cnc(C)c(-c5ccc(F)cc5C)c4O)cc3F)c2nc1OC [Compound 421, N-[4-[(7-ethyl-6-methoxy-1,5-naphthyridin-4-yl)oxy]-3-fluorophenyl]-5-(4-fluoro-2-methylphenyl)-4-hydroxy-6-methylpyridine-3-carboxamide]
< 100 | < 100 | < 100 | < 100 | COc1cc2nccc(Oc3ccc(NC(=O)c4c(C)nc(OC)c(-c5ccc(F)cc5)c4O)cc3F)c2nc1OC [Compound 442, N-[4-[(6,7-dimethoxy-1,5-naphthyridin-4-yl)oxy]-3-fluorophenyl]-5-(4-fluorophenyl)-4-hydroxy-6-methoxy-2-methylpyridine-3-carboxamide]
< 100 | < 100 | < 100 | < 100 | COc1ccc2nccc(Oc3ccc(NC(=O)c4c(C)nc(C)c(-c5ccc(F)cc5)c4O)cc3F)c2n1 [Compound 67, N-[3-Fluoro-4-[(6-methoxy-1,5-naphthyridin-4-yl)oxy]phenyl]-5-(4-fluorophenyl)-4-hydroxy-2,6-dimethylpyridine-3-carboxamide]
< 100 | < 100 | < 100 | < 100 | COc1cc2nccc(Oc3ccc(NC(=O)c4cnc(C)c(-c5ccc(F)cc5)c4O)cc3)c2nc1OC(C)C [Compound 413, 5-(4-fluorophenyl)-4-hydroxy-N-[4-[(7-methoxy-6-propan-2-yloxy-1,5-naphthyridin-4-yl)oxy]phenyl]-6-methylpyridine-3-carboxamide]
< 100 | < 100 | < 100 | > 300 | COc1cc2nccc(Oc3ccc(NC(=O)c4cn(C5CC5)c(C)c(-c5ccc(F)cc5)c4=O)cc3)c2nc1OC [Compound 434, 1-cyclopropyl-N-[4-[(6,7-dimethoxy-1,5-naphthyridin-4-yl)oxy]phenyl]-5-(4-fluorophenyl)-6-methyl-4-oxopyridine-3-carboxamide]
< 100 | < 100 | < 100 | 100 to 300 | Cc1cc(F)ccc1-c1c(C)nc(C)c(C(=O)Nc2ccc(Oc3ccnc4cc(C)c(F)nc34)c(F)c2)c1O [Compound 428, N-[3-fluoro-4-[(6-fluoro-7-methyl-1,5-naphthyridin-4-yl)oxy]phenyl]-5-(4-fluoro-2-methylphenyl)-4-hydroxy-2,6-dimethylpyridine-3-carboxamide]
< 100 | < 100 | < 100 | > 300 | COc1cc2nccc(Oc3ccc(NC(=O)c4cn(-c5ccn(C)n5)cc(-c5ccc(F)cc5)c4=O)cc3F)c2nc1OC [Compound 53, N-[4-[(6,7-Dimethoxy-1,5-naphthyridin-4-yl)oxy]-3-fluorophenyl]-5-(4-fluorophenyl)-1-(1-methylpyrazol-3-yl)-4-oxopyridine-3-carboxamide]
< 100 | < 100 | < 100 | > 300 | COc1cnc2c(Oc3ccc(NC(=O)c4cn(C)c(Cl)c(-c5ccc(F)cc5)c4=O)cc3F)ccnc2c1 [Compound 411, 6-chloro-N-[3-fluoro-4-[(7-methoxy-1,5-naphthyridin-4-yl)oxy]phenyl]-5-(4-fluorophenyl)-1-methyl-4-oxopyridine-3-carboxamide]
